Measurements published in US20240174657A1, “SELECTIVE ANGIOTENSIN II RECEPTOR LIGANDS” (priority 2021, published 2024).

Experiments:
Assay type in all cases: in vitro ADME
[1] = Metabolic hydrolysis, statement in text without method; details: found during development
[2] = system: Cytochrome P450 enzymes (CYPs), especially CYP 2C9 and CYP 3A4; experiment: CYP enzyme inhibition, statements in text without method; details: found during development
[3] = system: CYP3A4&5; experiment: CYP inhibition in human liver microsomes, testosterone substrate; details: probe testosterone, read-out: CYP3A4&5 testosterone Inh %

- inhibition of Cytochrome P450 enzymes (in words) [2]: potent inhibitor
- inhibition at 10 µM [3]: 94%
Structure (SMILES): CCCCOC(=O)NS(=O)(=O)c1sc(CC(C)C)cc1-c1ccc(Cn2ccnc2)cc1 [Example C21, N-butyloxycarbonyl-3-(4-imidazol-1-ylmethylphenyl)-5-isobutylthiophene-2-sulfon-amide]
- metabolic hydrolysis (in words) [1]: rapidly hydrolysed to an inactive sulfonamide metabolite
